{"source": "paper PMC6370202", "about": "“The catabolism of 3,3’-thiodipropionic acid in Variovorax paradoxus strain TBEA6: A proteomic analysis” (PLoS ONE, 2019)", "key": {"Ech-20 (VPARA_05520)": {"target": "T1, Ech-20 (VPARA_05520) (Variovorax paradoxus, UniProt A0A0H2MCT8)", "T1 construct": "recombinant from pET-32a(+)::ech-20 in E. coli BL21 (DE3) pLysS; Ni-Sepharose purified", "T1 sequence (A0A0H2MCT8 1-154)": "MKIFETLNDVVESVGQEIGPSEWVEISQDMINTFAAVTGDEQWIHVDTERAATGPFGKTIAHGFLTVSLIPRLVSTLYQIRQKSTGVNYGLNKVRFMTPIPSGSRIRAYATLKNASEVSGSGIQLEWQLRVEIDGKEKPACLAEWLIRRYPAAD", "assay": "thermal shift assay, SYPRO Orange", "format": "binding", "conditions": "2 uM protein, 2 mM ligand, 100 mM Tris/HCl pH 8.0; increased stability; no shift with TDP"}, "[1]": {"target": "T2, PctRe (propionyl-CoA transferase of Ralstonia eutropha) (Cupriavidus necator, UniProt Q0K874)", "T2 construct": "gene pct; recombinant from pET-19b::pctRe in E. coli BL21 (DE3) pLysS; N-terminal His-tag; Ni-Sepharose purified", "T2 sequence (Q0K874 1-542)": "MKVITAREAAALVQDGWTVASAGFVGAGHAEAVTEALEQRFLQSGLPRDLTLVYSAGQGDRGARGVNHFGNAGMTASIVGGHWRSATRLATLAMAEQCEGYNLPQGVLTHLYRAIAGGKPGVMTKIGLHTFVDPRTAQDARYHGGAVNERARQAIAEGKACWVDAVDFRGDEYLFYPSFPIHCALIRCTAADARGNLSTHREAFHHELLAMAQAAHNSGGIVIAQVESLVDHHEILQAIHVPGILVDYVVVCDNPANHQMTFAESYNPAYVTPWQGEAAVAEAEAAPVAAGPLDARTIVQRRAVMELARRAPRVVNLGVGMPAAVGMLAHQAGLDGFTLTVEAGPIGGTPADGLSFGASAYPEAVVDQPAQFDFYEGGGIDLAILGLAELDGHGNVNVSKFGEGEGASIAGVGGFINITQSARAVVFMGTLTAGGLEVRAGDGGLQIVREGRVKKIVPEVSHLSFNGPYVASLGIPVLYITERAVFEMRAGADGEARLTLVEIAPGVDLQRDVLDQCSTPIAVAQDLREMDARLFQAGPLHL", "assay": "enzymatic CoA transfer, product by HPLC/MS", "format": "biochemical", "conditions": "2 mM TDP, 1 mM acetyl-CoA, 20 ug PctRe in 1 ml, 100 mM Tris/HCl pH 8.0, 30 °C, 45 min"}}, "data": [{"smiles": "CC(C)(COP(=O)(O)OP(=O)(O)OC[C@H]1O[C@@H](n2cnc3c(N)ncnc32)[C@H](O)[C@@H]1OP(=O)(O)O)[C@@H](O)C(=O)NCCC(=O)NCCSC(=O)CCSCCC(=O)O", "note": "[TDP-CoA]", "values": [{"measurement": "shift in the melting temperature", "setting": "Ech-20 (VPARA_05520)", "result": "a shift in the melting temperature of Ech-20 in the presence of TDP-CoA was detected"}]}, {"smiles": "O=C(O)CCSCCC(=O)O", "note": "[TDP]", "values": [{"measurement": "enzymatic CoA transfer, product by HPLC/MS", "setting": "[1]", "result": "transfer of CoA from acetyl-CoA to TDP was accomplished using recombinant PctRe"}]}, {"smiles": "CC(=O)SCCNC(=O)CCNC(=O)[C@H](O)C(C)(C)COP(=O)(O)OP(=O)(O)OC[C@H]1O[C@@H](n2cnc3c(N)ncnc32)[C@H](O)[C@@H]1OP(=O)(O)O", "note": "[acetyl-CoA]", "values": [{"measurement": "enzymatic CoA transfer, product by HPLC/MS", "setting": "[1]; CoA donor", "result": "transfer of CoA from acetyl-CoA to TDP was accomplished using recombinant PctRe"}]}]}
